This note sets out measurements from patent US11077100B2, “Tetrahydroquinoline derivatives as P2X7 receptor antagonists” (RaQualia Pharma Inc., priority 2017, dated 2021).

For orientation: IC50 means the concentration at which inhibition is half-maximal.

One assay has as its target rat P2X7 (Rattus norvegicus (Rat), UniProt Q64663). The assay is described as follows: Rat P2X7 functional assay (Ca2+ influx, Fluo-4, FDSS). The conditions noted are these: HEK293 cells stably expressing rat P2X7; BzATP final 10 microM; 7-point dose-response; read-out: Antagonistic activities with respect to the rat P2X7 receptor (IC50). The class given is cell-based. The procedure, abridged: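 HEK293 cells stably expressing rat P2X7 (5,000/well, plated 24 h before) loaded with Fluo-4; compounds preincubated 10 min at room temperature, then Ca2+ rise after 10 microM BzATP (final) read on FDSS (480/540 nm). IC50 from 7-point curves, duplicate wells.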

The next assay has as its target human P2X7 (Homo sapiens (Human), UniProt Q99572). The assay can be described thus: Human P2X7 functional assay (Ca2+ influx, Fluo-4, FDSS). The class given is cell-based. The conditions noted are these: antagonistic activity with respect to the human P2X7 receptor; BzATP final concentration 80 microM. The procedure, abridged:
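HEK293 cells stably expressing C-terminally FLAG-tagged human P2X7, loaded with Fluo-4. Compounds were preincubated for 10 min at room temperature, then 80 μM BzATP (final) was added and Ca2+ fluorescence read at 540 nm (480 nm excitation) by FDSS. IC50 values come from 7-point curves, duplicate wells.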

Chain of human P2X7 (Q99572 whole entry): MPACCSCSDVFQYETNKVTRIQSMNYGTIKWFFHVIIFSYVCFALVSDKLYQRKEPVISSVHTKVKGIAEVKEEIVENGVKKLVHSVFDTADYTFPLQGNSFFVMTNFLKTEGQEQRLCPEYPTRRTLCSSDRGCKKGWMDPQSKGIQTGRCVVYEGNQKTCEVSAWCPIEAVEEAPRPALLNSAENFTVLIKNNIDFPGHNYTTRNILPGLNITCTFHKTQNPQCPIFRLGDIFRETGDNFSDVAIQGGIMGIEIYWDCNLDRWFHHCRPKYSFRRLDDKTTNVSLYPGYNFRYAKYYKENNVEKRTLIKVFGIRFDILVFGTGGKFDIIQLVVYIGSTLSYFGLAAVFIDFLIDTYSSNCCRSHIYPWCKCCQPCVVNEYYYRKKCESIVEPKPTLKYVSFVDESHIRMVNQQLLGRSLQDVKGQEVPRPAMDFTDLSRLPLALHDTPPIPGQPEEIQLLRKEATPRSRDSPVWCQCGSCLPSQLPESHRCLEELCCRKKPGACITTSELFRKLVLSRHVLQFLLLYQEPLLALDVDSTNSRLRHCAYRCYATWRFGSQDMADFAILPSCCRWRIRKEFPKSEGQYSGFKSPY
Chain of rat P2X7 (Q64663 whole entry): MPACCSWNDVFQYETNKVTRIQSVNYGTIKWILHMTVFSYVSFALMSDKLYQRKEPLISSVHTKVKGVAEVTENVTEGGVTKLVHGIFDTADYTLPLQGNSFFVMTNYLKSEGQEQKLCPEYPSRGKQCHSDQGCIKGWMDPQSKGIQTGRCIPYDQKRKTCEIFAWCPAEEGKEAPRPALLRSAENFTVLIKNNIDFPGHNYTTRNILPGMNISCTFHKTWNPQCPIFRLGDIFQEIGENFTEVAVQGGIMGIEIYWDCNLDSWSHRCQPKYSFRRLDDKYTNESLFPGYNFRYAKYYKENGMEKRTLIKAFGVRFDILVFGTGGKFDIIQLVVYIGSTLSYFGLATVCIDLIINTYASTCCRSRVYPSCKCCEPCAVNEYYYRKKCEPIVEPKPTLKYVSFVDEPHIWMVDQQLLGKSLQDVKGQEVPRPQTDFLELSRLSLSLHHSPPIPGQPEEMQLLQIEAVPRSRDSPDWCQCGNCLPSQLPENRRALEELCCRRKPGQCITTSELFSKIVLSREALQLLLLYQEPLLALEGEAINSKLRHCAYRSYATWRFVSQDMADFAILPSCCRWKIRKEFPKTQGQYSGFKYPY

Consider `CO[C@H]1CC[C@@](F)(C(=O)NCc2ccc(Cl)cc2F)c2cccnc21` [Example 340, (5S,8S)-N-(4-chloro-2-fluorobenzyl)-5-fluoro-8-methoxy-5,6,7,8-tetrahydroquinoline-5-carboxamide], for which the IC50 at rat P2X7 was < 1000 nM; against human P2X7, < 50 nM.
For `CO[C@H]1CC[C@@](F)(C(=O)NCc2c(F)cc(F)cc2F)c2cccnc21` [Example 341, (5S,8S)-5-fluoro-8-methoxy-N-(2,4,6-trifluorobenzyl)-5,6,7,8-tetrahydroquinoline-5-carboxamide], the IC50 was < 1000 nM on rat P2X7 and 50 to 100 nM on human P2X7.
For `CO[C@H]1CC[C@@](F)(C(=O)NCc2ccc(F)cc2F)c2cccnc21` [Example 342, (5S,8S)-N-(2,4-difluorobenzyl)-5-fluoro-8-methoxy-5,6,7,8-tetrahydroquinoline-5-carboxamide], in that order: < 1000 nM and 50 to 100 nM.
Take `O=C(NCc1c(Cl)cc(Cl)cc1CO)[C@]1(F)CC[C@H](OCCO)c2ncccc21` [Example 343, (5S,8S)-N-(2,4-dichloro-6-(hydroxymethyl)benzyl)-5-fluoro-8-(2-hydroxyethoxy)-5,6,7,8-tetrahydroquinoline-5-carboxamide]: the IC50 was < 1000 nM on rat P2X7 and < 50 nM against human P2X7.
`O=C(NCc1ccc(F)cc1Cl)[C@]1(F)CC[C@H](OCCO)c2ncccc21` [Example 344, (5S,8S)-N-(2-chloro-4-fluorobenzyl)-5-fluoro-8-(2-hydroxyethoxy)-5,6,7,8-tetrahydroquinoline-5-carboxamide]: the IC50 is < 1000 nM at rat P2X7 and < 50 nM at human P2X7.
For `O=C(NCc1ccc(F)c(F)c1F)[C@]1(F)CC[C@H](OCCO)c2ncccc21` [Example 345, (5S,8S)-5-fluoro-8-(2-hydroxyethoxy)-N-(2.3.4-trifluorobenzyl)-5,6,7,8-tetrahydroquinoline-5-carboxamide], in that order: < 1000 nM and < 50 nM.
In the case of `O=C(NCc1ccc(Cl)cc1F)[C@]1(F)CC[C@H](OCCO)c2ncccc21` [Example 346, (5S,8S)-N-(4-chloro-2-fluorobenzyl)-5-fluoro-8-(2-hydroxyethoxy)-5,6,7,8-tetrahydroquinoline-5-carboxamide], the IC50 at rat P2X7 is < 1000 nM; against human P2X7 it was < 50 nM.
In the same order, the values of `O=C(NCc1ccc(F)cc1F)[C@]1(F)CC[C@H](OCCO)c2ncccc21` [Example 347, (5S,8S)-N-(2,4-difluorobenzyl)-5-fluoro-8-(2-hydroxyethoxy)-5,6,7,8-tetrahydroquinoline-5-carboxamide] are < 1000 nM and 50 to 100 nM.
For `O=C(NCc1ccc(Cl)cc1Cl)[C@]1(F)CC[C@H](OCC(O)CO)c2ncccc21` (stereo partly drawn) [Example 349, (5S,8S)—N-(2,4-dichlorobenzyl)-8-(2,3-dihydroxypropoxy)-5-fluoro-5,6,7,8-tetrahydroquinoline-5-carboxamide], in that order: < 1000 nM and < 50 nM.
With `O=C(NCc1ccc(Cl)cc1Cl)[C@]1(F)CCC(S(=O)(=O)CCO)c2ncccc21` (stereo partly drawn) [Example 351, (5S)-N-(2,4-clichlorebenzyl)-5-fluoro-8-((2-hydroxyethyl)sulfenyl)-5,6,7,8-letrahydroquineline-5-carboxamide], the results for the IC50 on rat P2X7 and against human P2X7 were < 1000 nM and < 50 nM, respectively.
In the same order, the values of `O=C(NCc1cccc(C(F)(F)F)c1Cl)[C@@]1(F)CC[C@H](F)c2ncccc21` [Example 352, (5R,8S)-N-(2-chloro-3-(trifluoromethyl)benzyl)-5,8-difluoro-5,6,7,8-tetrahydroquinoline-5-carboxamide] are < 1000 nM and < 50 nM.
